Counter-ions that a name gives are not always drawn. Like-named read-outs stand apart in the source and are kept apart here.
How the values were obtained:
[1] = biological target: T1, GST-cGB-PDE5 fusion protein (cGMP binding sites of human PDE5A) (Homo sapiens, UniProt O76074); assay: cGMP binding assay with GST-cGB-PDE5 fusion protein; conditions: for competition with cGMP in binding of GST-cGB-PDE5: high concentration (100 μM) vs cGMP (2 μM)
T1 construct: made in house; host or cells: E. coli BL21 (DE3)
From the text: RT-PCR method is used to obtain the cGB domain of PDE5 with forward and reverse primers designed from bovine PDE5A cDNA sequence (McAllister-Lucas L. M. et al, J. Biol. Chem. 268, 22863-22873, 1993) and the selection among PDE 1-10 families. 5′-3′, Inc. kits for total RNA followed by oligo (dT) column purification of mRNA are used with HT-29 cells. […] It is then cloned into pGEX-5×-3 […] (GST) fusion vector (Pharmacia Biotech) with tac promoter, and EcoRI and XhoI cut sites. The fusion vector is then transfected into E. Coli BL21 (DE3) bacteria (Invitrogen). The transfected BL21 bacteria is grown to log phase, and then IPTG is added as an inducer. The induction is carried at 20° C. for 24 hrs. The bacteria are harvested and lysed. The soluble cell lysate is incubated with GSH conjugated Sepharose 4B (GSH-Sepharose 4B). The GST-cGB-PDE5 fusion protein can bind to the GSH-Sepharose beads, and the other proteins are washed off from beads with excessive cold PBS.
The vials are counted on a Beckman LS 6500 scintillation counter.
The quenching by filter membrane or other debris are also calibrated.

U937 cells = assay: Apoptosis induction of U937 cells (active caspase 3, indirect immunofluorescence); type: cell-based; conditions: 1 μM, 24 hours
Experimental: The presence of PDE2 and PDE5 protein within U937 cells was confirmed by indirect immunofluorescence (IIF). U937 cells were cultured as above. Two U937 cultures, one grown in the presence of 5 nM TPA for 48 hours and one grown in normal media were processed. All cultures were collected by centrifugation (Shandon Cytospin, 2 minutes @ 600 rpm) onto poly-L lysine-coated slides and immediately fixed in fresh 3% paraformaldehyde buffered in PBS for 10 minutes. Adherent cultures were grown on coverslips and fixed as above. Cells were permeablized in 0.2% triton-100 for 2 minutes. Slides were blocked with blocking buffer (5% goat serum, 5% glycerol, 1% gelatin from cold water fish skin and 0.04% NaN3 in PBS) for 1 hour at room temperature.
Slides were then incubated for 1 hour at 37° C. in a humid chamber with antibodies specific for PDE2 (generated in a sheep against the peptide […]) or PDE5 (generated in sheep against the peptide […]). The PDE5 antibody was used at a dilution of 1:200 and the PDE2 antibody was used at a dilution of 1:100. All dilutions were performed in blocking buffer. […]
The level of apoptosis in U937 cells was quantified by scoring 500 consecutive cells for the presence of active caspase 3. […]

[2] = Seven-day dose-range finding study in rats; type: in vivo; conditions: 7 days, 500 mg/kg/day
[3] = Long-term safety assessment, 91 consecutive days, rats; type: in vivo; conditions: 91 days, 200 and 500 mg/kg/day
From the text: These changes were not associated with any gross clinical abnormality.

[4] = in vivo; cited from earlier work

T1 sequence (O76074 46-539 limits assumed): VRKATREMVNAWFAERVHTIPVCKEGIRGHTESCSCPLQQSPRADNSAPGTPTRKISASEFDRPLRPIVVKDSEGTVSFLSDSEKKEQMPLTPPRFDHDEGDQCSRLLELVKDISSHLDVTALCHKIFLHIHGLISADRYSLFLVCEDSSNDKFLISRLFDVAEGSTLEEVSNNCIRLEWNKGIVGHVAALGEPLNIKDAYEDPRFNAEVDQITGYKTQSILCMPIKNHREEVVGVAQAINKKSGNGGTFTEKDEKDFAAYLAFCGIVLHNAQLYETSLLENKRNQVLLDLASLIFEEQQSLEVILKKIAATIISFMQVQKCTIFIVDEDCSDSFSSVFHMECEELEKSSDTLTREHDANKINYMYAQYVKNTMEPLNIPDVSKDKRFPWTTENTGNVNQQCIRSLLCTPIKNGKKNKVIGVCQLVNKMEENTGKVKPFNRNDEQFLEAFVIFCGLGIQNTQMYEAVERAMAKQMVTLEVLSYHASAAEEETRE

| Molecule | competition with cGMP in binding of GST-cGB-PDE5 (cGMP binding sites) ([1]; 3H-cGMP 2 μM, 22° C., 1 hour) | further results |
| --- | --- | --- |
| CCCCOC1C2OP(=O)(O)OCC2OC1n1cnc2c(N)ncnc21 (stereo not shown) [2′-O-butyl-cAMP] | did not compete with cGMP in binding | – |
| CCCCOC1C2OP(=O)(O)OCC2OC1n1cnc2c(=O)[nH]c(N)nc21 (stereo not shown) [2′-O-butyl-cGMP] | did not compete with cGMP in binding | – |
| CC1=C(CC(=O)NCc2ccccc2)c2cc(F)ccc2/C1=C\c1ccncc1 [Compound 38, (Z)-5-Fluoro-2-Methyl-(4-Pyridylidene)-3-(N-Benzyl) Indenylacetamide Hydrochloride] | does not bind to the cGMP-binding site of PDE5 | apoptosis by presence of active caspase 3 (FIG. 8) (U937 cells): undergoing apoptosis; treatment-related effects [2]: limited to an increase in absolute and relative liver weights in female rats; microscopic findings [3]: slight hepatocellular hypertrophy at 200 and 500 mg/kg/day groups, follicular cell hypertrophy at 500 mg/kg/day and increase in accumulation of hyalin droplets in the kidneys at 200 and 500 mg/kg/day group |
| Nc1ncnc2c1ncn2[C@@H]1O[C@@H]2COP(=O)(O)O[C@H]2[C@H]1O [Cyclic AMP] | – | competition with cGMP in binding of GST-cGB-PDE5 (cGMP binding sites) [1]: did not compete with cGMP in binding |
| O=c1[nH]cnc2c1ncn2[C@@H]1O[C@@H]2COP(=O)(O)O[C@H]2[C@H]1O [Cyclic IMP, cyclic IMP] | – | competition with cGMP in binding of GST-cGB-PDE5 [1]: can partially compete with cGMP |
| Nc1nc2c(nc(Br)n2[C@@H]2O[C@@H]3COP(=O)(O)O[C@H]3[C@H]2O)c(=O)[nH]1 [Example 8-bromo-cGMP, 8-bromo-cGMP] | – | competition with cGMP in binding of GST-cGB-PDE5 [1]: can partially compete with cGMP |
| O=C(O)C1CCN(c2nc(NCc3ccc4c(c3)OCO4)c3cc(Cl)ccc3n2)CC1 [Example E4021] | None of the PDE5 inhibitors showed any competition with cGMP | – |
| CSc1ccc(/C=C2/C(C)=C(CC(=O)O)c3cc(F)ccc32)cc1 [Sulindac sulfide, sulindac sulfide] | None of the PDE5 inhibitors showed any competition with cGMP | – |
| Nc1ccn([C@@H]2O[C@@H]3COP(=O)(O)O[C@H]3[C@H]2O)c(=O)n1 [cCMP, cyclic CMP] | did not compete with cGMP in binding | – |
| O=c1ccn([C@@H]2O[C@@H]3COP(=O)(O)O[C@H]3[C@H]2O)c(=O)[nH]1 [cUMP, cyclic UMP] | did not compete with cGMP in binding | – |
| CC1=C(CC(=O)O)c2cc(F)ccc2/C1=C\c1ccc(S(C)(=O)=O)cc1 [exisulind] | None of the PDE5 inhibitors showed any competition with cGMP | – |
| CCCOc1ccccc1-c1nc2nn[nH]c2c(=O)[nH]1 [zaprinast] | None of the PDE5 inhibitors showed any competition with cGMP | – |
| interferon gamma: interferon, drug that affects certain factors in the immune system | – | skin symptoms [4]: modest improvement in skin symptoms |

From patent US20060100210A1, “Methods for treatment of scleroderma” (priority 2001, published 2006)
